From PMC13274462, “Growth of Corynebacterium glutamicum on 5-oxo-L-proline (pyroglutamate) as a carbon and nitrogen source requires the PxpR-controlled pxpTABC genes” (Applied and Environmental Microbiology, 2026) come the findings set out here.

As a reminder, the Kd is the free concentration of one partner at which half of the binding sites on the other are occupied at equilibrium, for simple one-to-one binding.

This test concerns the target T1, PxpR (Corynebacterium glutamicum, UniProt Q8NRP0).
T1 construct: gene Cgl1008; PxpR protein with a C-terminal Strep-tag-II (PxpR-Strep)
T1 sequence (Q8NRP0 11-227): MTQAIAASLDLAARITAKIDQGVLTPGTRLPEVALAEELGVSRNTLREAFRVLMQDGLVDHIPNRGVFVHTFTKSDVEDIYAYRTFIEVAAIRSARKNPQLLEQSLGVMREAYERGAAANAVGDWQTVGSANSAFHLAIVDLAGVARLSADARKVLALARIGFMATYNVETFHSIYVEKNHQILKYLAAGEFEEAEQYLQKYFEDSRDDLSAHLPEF
Put plainly: isothermal titration calorimetry (ITC) with purified PxpR-Strep, […]°C, pH […]. It is filed as binding. On the technique in general: ITC needs no label: the signal is the heat of the interaction.

In the case of `O=C1CC[C@@H](C(=O)O)N1` [5-OP, 5-oxo-L-proline], the Kd amounted to 726 ± 23 nM.
